One series relates to OV90. As to conditions: 72-hr incubation, Alamar Blue, read-out: IC50 cisplatin; cited from earlier work.
Another series deals with OVCAR3. As to conditions: 72-hr incubation, Alamar Blue, read-out: IC50 cisplatin; cited from earlier work.
In another series the test system is A2780CP20. As to conditions: 72-hr incubation, Alamar Blue, read-out: IC50 cisplatin; cited from earlier work.
The subject of another series is SKOV3IP1. As to conditions: 72-hr incubation, Alamar Blue, read-out: IC50 cisplatin; cited from earlier work.
Series [1] has as its system OVCAR3CIS cells. The experiment in a line: Cell viability, Alamar blue, siRNA alone or with cisplatin. The series is classed as cell-based. As to conditions: CIS 2.5 μM, NC-siRNA-transfected OVCAR3CIS cells. On the procedure:
OVCAR3CIS cells (3.0×10^4 cells/mL) or SKOV3ip1CIS (3.0×10^4 cells/mL) were seeded into 12-well plates. […] The next day, 400 cells (OVCAR3CIS) or 1,000 cells (SKOV3ip1CIS) were seeded into 6-well plates and incubated for seven days, fixed and stained with 0.5% crystal violet in methanol. Colonies of at least 50 cells were counted using a light microscope (CKX41: Olympus, Center Valley, PA, USA) with a total magnification of 40x. For cell viability assays, OVCAR3 and OVCAR3CIS (3.0×10^4 cells/mL) or SKOV3ip1and SKOV3ip1CIS (3.5×10^4 cells/mL) were seeded into 96-well plates, and 24 hours later, siRNA transfection was performed as described above. The next day, the transfection mix was replaced with cisplatin (CIS) (2.5 uM final concentration dissolved in regular cell culture media) and after forty-eight hours, the medium was removed, and Alamar blue dye (Invitrogen, Thermo Fisher Scientific, Eugene, OR, USA) was added following the manufacturer's instructions. Optical density (OD) was measured, and percentages of cell viability were calculated after blank OD subtraction. Untreated cells were assessed as 100% cell viability.

In another series the test system is OVCAR3CIS. As to conditions: 72-hr incubation, Alamar Blue, read-out: IC50 cisplatin; cited from earlier work.
Another series concerns OV90CIS. As to conditions: 72-hr incubation, Alamar Blue, read-out: IC50 cisplatin; cited from earlier work.
Series [2] relates to SKOV3IP1CIS. As to conditions: 72-hr incubation, Alamar Blue, read-out: IC50 cisplatin; cited from earlier work.
Another series has as its system A2780CIS. As to conditions: 72-hr incubation, Alamar Blue, read-out: IC50 cisplatin; cited from earlier work.
The subject of series [3] is CASC10. The experiment in a line: RT-qPCR of CASC10 expression after siRNA transfection in SKOV3ip1 cells. The format is cell-based, human. As to conditions: SKOV3ip1 cells as printed. How it is done:
(§1) SiRNA ON-TARGET plus SMARTpool (a mixture of 4 siRNA as a single tube) and a negative control siRNA (NC-siRNA) (Sigma-Aldrich) were used for transfection studies. CASC10, was targeted by using two siRNAs targeting different regions of the CASC10 RNA (e.g., CASC10-siRNA (1) and CASC10-siRNA (2)). OVCAR3CIS or SKOV3ip1CIS cells were seeded into 12-well plates at 3.0×10^4 cells/mL. The next day, siRNAs were mixed with HiPerfect transfection reagent (Qiagen, Valencia, CA) at a 1:2 ratio (SIRNA: HiPerfect) in serum and antibiotic-free Opti-MEM medium (Gibco) and added to the cells. After twenty-four hours the media was replaced by regular culture media, and cells were cultured and used for further experiments. To assess siRNA transfection efficiency, cells were collected 24 hours after siRNA transfection.
(§2) A custom-made 384-well plate containing pre-designed forward and reverse primers was purchased from Bio-Rad (CA, USA). Total RNA was isolated from OVCAR3 and OVCAR3CIS cells using the GenElute Mammalian Total RNA Mini Kit (Millipore-Sigma, MO, USA) following the manufacturer's instructions. […] Fold-changes and cycle threshold (Ct) values were calculated by the instrument's internal software relative to OVCAR3 cells and normalized to B-actin along with controls for gDNA, PCR reaction, RT reaction, and RNA quality.

The test system of a further series is SKOV3ip1CIS cells. Put plainly: Colony formation assay after siRNA transfection. The series is classed as cell-based, human. As to conditions: SKOV3ip1CIS (FIG. 8B). How it is done:
as §1
OVCAR3CIS cells (3.0×10^4 cells/mL) or SKOV3ip1CIS (3.0×10^4 cells/mL) were seeded into 12-well plates. Twenty-four hours later, cells were transfected with 100 nM (final concentration) of each siRNA. […] Colonies of at least 50 cells were counted using a light microscope (CKX41: Olympus, Center Valley, PA, USA) with a total magnification of 40x. […] Optical density (OD) was measured, and percentages of cell viability were calculated after blank OD subtraction. Untreated cells were assessed as 100% cell viability.

For series [4], the system named is OVCAR3CIS cells. Put plainly: Colony formation assay after siRNA transfection. The format is cell-based. As to conditions: single siRNA, vs NC-siRNA. How it is done: as §1
OVCAR3CIS cells (3.0×10^4 cells/mL) or SKOV3ip1CIS (3.0×10^4 cells/mL) were seeded into 12-well plates. Twenty-four hours later, cells were transfected with 100 nM (final concentration) of each siRNA. […] Colonies of at least 50 cells were counted using a light microscope (CKX41: Olympus, Center Valley, PA, USA) with a total magnification of 40x. […] Optical density (OD) was measured, and percentages of cell viability were calculated after blank OD subtraction. Untreated cells were assessed as 100% cell viability. […]

Series [5] concerns CASC10. The experiment in a line: RT-qPCR of CASC10 expression after siRNA transfection in OVCAR3CIS cells. The series is classed as cell-based. As to conditions: vs NC-siRNA. On the procedure: as §1, §2
Series [6] has as its system OVCAR3CIS cells. Put plainly: Matrigel transwell invasion assay. The series is classed as cell-based. As to conditions: vs NC-siRNA. How it is done: (§3) Cell invasion was measured using the Matrigel transwell method. OVCAR3CIS (3.0×10^4 cells/mL) or SKOVip1CIS (3.5×10^4 cells/mL) were seeded into 10 cm Petri dishes and transfected with siRNAs. Twenty-four hours later, serum-free matrigel (BD Biosciences CA, USA) was added onto the upper chambers of 24-well plates and incubated at 37° C. for polymerization. Transfected cells were collected and resuspended in serum-free and re-seeded onto the Matrigel-coated chambers. Medium containing 10% FBS was added to the lower area of the wells, and the plates incubated for 48 hours at 37° C. The medium was removed, and cells that invaded through the matrigel fixed and stained using ProtocolHema 3 Stain Set (Fisher Scientific MI, USA). Invaded cells were microscopically counted using a digital camera to capture images at a 20× resolution. The percentage of cell invasion was calculated using the NC-SIRNA condition as 100% cell invasion.

The test system of series [7] is SKOV3IP1CIS. Put plainly: Matrigel transwell invasion assay. The series is classed as cell-based, human. How it is done: as §3

In the case of `N.N.[Cl][Pt][Cl]` [cisplatin], the half-inhibitory concentration (IC50) with OV90 is 3.5 µM; in the series with OVCAR3, 2.8 µM; with A2780CP20 it was 20 to 30 µM; in the series with SKOV3IP1, 3.9 µM; in the series with OVCAR3CIS, 7.5 µM; in the series on OV90CIS, 7.8 µM. Further, the results for the IC50 with SKOV3IP1CIS [2] and in the series on A2780CIS were 7.3 µM and 4.3 µM, respectively. For the same compound, the cell viability result in the series with OVCAR3CIS cells [1] was “reduced the cell viability”.
For the compound “CASC10-siRNA (1): siRNA targeting CASC10 RNA, SEQ ID NO 1 and 2: 5′ GCUAUCUGCUUGAUCCCUU(dT)(dT) 3′ / 5′ AAGGGAUCAAGCAGAUAGO(dT)(dT) 3′ (chain 1 GCUAUCUGCUUGAUCCCUUNN; chain 2 AAGGGAUCAAGCAGAUAGCNN; 3' dTdT overhangs, chemistry not fully specified)”, in the series with CASC10 [3], the “decrease of CASC10 relative expression” value is given as 70%. Besides, the “reduction in the number of colonies” value with SKOV3ip1CIS cells came to 81%; in the series on OVCAR3CIS cells [4], 42%. Further, the “decrease of CASC10 expression” value in the series with CASC10 [5] came to 47%. For the same compound, in the series on OVCAR3CIS cells [6], the reduction of invasiveness is recorded as 42%. In addition, the “reduction of invasion ability” value in the series on SKOV3IP1CIS [7] is 36%.

These data come from US20250333733A1, “NOVEL TARGETS AGAINST OVARIAN CANCER” (UNIVERSITY OF PUERTO RICO, priority 2022, published 2025).
